Experimental data published in patent publication US8299111B2, “Compounds which modulate the CB2 receptor” (Boehringer Ingelheim International GmbH, priority 2006, dated 2012).

Each molecule was assayed against T1, human CB2R (Homo sapiens, UniProt P34972) (assay: CB2R mediated modulation of cAMP synthesis). Conditions: found through the use of the above described assays (binding and cAMP); CHO cells expressing human CB2R, forskolin-stimulated cAMP.
T1 construct: host or cells: CHO cells
T1 sequence (P34972 whole entry): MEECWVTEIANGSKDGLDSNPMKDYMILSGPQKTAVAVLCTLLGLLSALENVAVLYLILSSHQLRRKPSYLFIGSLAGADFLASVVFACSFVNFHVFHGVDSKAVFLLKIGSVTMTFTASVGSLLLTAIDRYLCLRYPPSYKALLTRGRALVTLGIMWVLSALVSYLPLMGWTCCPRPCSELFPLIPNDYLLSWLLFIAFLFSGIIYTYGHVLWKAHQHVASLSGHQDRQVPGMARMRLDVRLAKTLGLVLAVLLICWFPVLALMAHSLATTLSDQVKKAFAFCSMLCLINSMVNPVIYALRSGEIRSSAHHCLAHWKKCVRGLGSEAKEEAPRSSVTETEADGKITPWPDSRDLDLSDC
Type: cell-based
Method in brief: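 EC50 values reflect inhibition of cAMP made in response to 10 uM forskolin (with 1 mM IBMX, 0.25% BSA) over 30 min at 37 °C in human CB2R-expressing CHO cells. The window runs from forskolin alone to 1 uM CP55940; curves fitted with a four-parameter logistic model.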
For CC(C)(C)c1ccc(NC(=O)C(C)(C)S(=O)(=O)c2ccc(C(F)(F)F)nc2)cc1 [N-(4-tert-butylphenyl)-2-methyl-2-{[6-(trifluoromethyl)pyridin-3-yl]sulfonyl}propanamide], the agonistic activity was “agonistic activity”. Cn1nc(C2CC2)cc1NC(=O)C(C)(C)S(=O)(=O)c1ccc(F)cc1F [N-(5-Cyclopropyl-2-methyl-2H-pyrazol-3-yl)-2-(2,4-difluoro-benzenesulfonyl)-2-methyl-propionamide] was tested, and the agonistic activity was “agonistic activity”. In the case of CCc1sc(NC(=O)C(C)(C)S(=O)(=O)c2ccc(OC)cc2)nc1-c1ccccc1 [N-(5-ethyl-4-phenyl-1,3-thiazol-2-yl)-2-[(4-methoxyphenyl)sulfonyl]-2-methylpropanamide], the agonistic activity is reported as “agonistic activity”. With CCc1sc(NC(=O)C(C)(C)S(=O)(=O)c2ccc(S(C)(=O)=O)cc2)nc1-c1ccccc1 [N-(5-ethyl-4-phenyl-1,3-thiazol-2-yl)-2-methyl-2-{[4-(methylsulfonyl)phenyl]sulfonyl}propanamide] the agonistic activity was “agonistic activity”. For CCc1sc(NC(=O)C(C)(C)S(=O)(=O)c2ccc(C(F)(F)F)nc2)nc1-c1ccccc1 [N-(5-ethyl-4-phenyl-1,3-thiazol-2-yl)-2-methyl-2-{[6-(trifluoromethyl)pyridin-3-yl]sulfonyl}propanamide], the agonistic activity was “agonistic activity”. With CCC(C)c1cc(NC(=O)C(C)(C)S(=O)(=O)c2ccc(Cl)cc2)n(C)n1 (stereo not drawn) [N-(5-sec-Butyl-2-methyl-2H-pyrazol-3-yl)-2-(4-chloro-benzenesulfonyl)-2-methyl-propionamide] the agonistic activity was “agonistic activity”. CCC(C)c1ccc(NC(=O)C(C)(C)S(=O)(=O)c2ccc(Cl)cc2)nc1 (stereo not drawn) [N-(5-sec-Butyl-pyridin-2-yl)-2-(4-chloro-benzenesulfonyl)-2-methyl-propionamide] was tested, and the agonistic activity was “agonistic activity”. For Cn1nc(C(C)(C)C)cc1NC(=O)C(C)(C)S(=O)(=O)c1ccc(F)cc1F [N-(5-tert-Butyl-2-methyl-2H-pyrazol-3-yl)-2-(2,4-difluoro-benzenesulfonyl)-2-methyl-propionamide], the agonistic activity was “agonistic activity”. In the case of Cn1nc(C(C)(C)C)cc1NC(=O)C(C)(C)S(=O)(=O)c1cc(F)ccc1F [N-(5-tert-Butyl-2-methyl-2H-pyrazol-3-yl)-2-(2,5-difluoro-benzenesulfonyl)-2-methyl-propionamide], the agonistic activity is reported as “agonistic activity”. Cc1ccc(S(=O)(=O)C(C)(C)C(=O)Nc2cc(C(C)(C)C)nn2C)c(F)c1 [N-(5-tert-Butyl-2-methyl-2H-pyrazol-3-yl)-2-(2-fluoro-4-methyl-benzenesulfonyl)-2-methyl-propionamide] was tested, and the agonistic activity was “agonistic activity”. In the case of Cn1nc(C(C)(C)C)cc1NC(=O)C(C)(C)S(=O)(=O)c1ccccc1F [N-(5-tert-Butyl-2-methyl-2H-pyrazol-3-yl)-2-(2-fluoro-benzenesulfonyl)-2-methyl-propionamide], the agonistic activity is reported as “agonistic activity”. For COc1ccc(S(=O)(=O)C(C)(C)C(=O)Nc2cc(C(C)(C)C)nn2C)cc1F [N-(5-tert-Butyl-2-methyl-2H-pyrazol-3-yl)-2-(3-fluoro-4-methoxy-benzenesulfonyl)-2-methyl-propionamide], the agonistic activity was “agonistic activity”. In the case of Cc1ccc(S(=O)(=O)C(C)(C)C(=O)Nc2cc(C(C)(C)C)nn2C)cc1F [N-(5-tert-Butyl-2-methyl-2H-pyrazol-3-yl)-2-(3-fluoro-4-methyl-benzenesulfonyl)-2-methyl-propionamide], the agonistic activity is reported as “agonistic activity”. With Cn1nc(C(C)(C)C)cc1NC(=O)C(C)(C)S(=O)(=O)c1cccc(F)c1 [N-(5-tert-Butyl-2-methyl-2H-pyrazol-3-yl)-2-(3-fluoro-benzenesulfonyl)-2-methyl-propionamide] the agonistic activity was “agonistic activity”. In the case of Cn1nc(C(C)(C)C)cc1NC(=O)C(C)(C)S(=O)(=O)c1ccc(Cl)cc1F [N-(5-tert-Butyl-2-methyl-2H-pyrazol-3-yl)-2-(4-chloro-2-fluoro-benzenesulfonyl)-2-methyl-propionamide], the agonistic activity is reported as “agonistic activity”. With Cn1nc(C(C)(C)C)cc1NC(=O)C(C)(C)S(=O)(=O)c1ccc(Cl)cc1 [N-(5-tert-Butyl-2-methyl-2H-pyrazol-3-yl)-2-(4-chloro-benzenesulfonyl)-2-methyl-propionamide] the agonistic activity was “agonistic activity”. With Cn1nc(C(C)(C)C)cc1NC(=O)C(C)(C)S(=O)(=O)c1ccc(C#N)cc1F [N-(5-tert-Butyl-2-methyl-2H-pyrazol-3-yl)-2-(4-cyano-2-fluoro-benzenesulfonyl)-2-methyl-propionamide] the agonistic activity was “agonistic activity”. Cn1nc(C(C)(C)C)cc1NC(=O)C(C)(C)S(=O)(=O)c1ccc(C#N)cc1 [N-(5-tert-Butyl-2-methyl-2H-pyrazol-3-yl)-2-(4-cyano-benzenesulfonyl)-2-methyl-propionamide] was tested, and the agonistic activity was “agonistic activity”. With Cn1nc(C(C)(C)C)cc1NC(=O)C(C)(C)S(=O)(=O)c1ccc(F)cc1 [N-(5-tert-Butyl-2-methyl-2H-pyrazol-3-yl)-2-(4-fluoro-benzenesulfonyl)-2-methyl-propionamide] the agonistic activity was “agonistic activity”. COc1ccc(S(=O)(=O)C(C)(C)C(=O)Nc2cc(C(C)(C)C)nn2C)cc1 [N-(5-tert-Butyl-2-methyl-2H-pyrazol-3-yl)-2-(4-methoxy-benzenesulfonyl)-2-methyl-propionamide] was tested, and the agonistic activity was “agonistic activity”. For Cn1nc(C(C)(C)C)cc1NC(=O)C(C)(C)S(=O)(=O)c1ccc(Cl)nc1 [N-(5-tert-Butyl-2-methyl-2H-pyrazol-3-yl)-2-(6-chloro-pyridine-3-sulfonyl)-2-methyl-propionamide], the agonistic activity was “agonistic activity”. In the case of COc1ccc(S(=O)(=O)C(C)(C)C(=O)Nc2cc(C(C)(C)C)nn2C)cn1 [N-(5-tert-Butyl-2-methyl-2H-pyrazol-3-yl)-2-(6-methoxy-pyridine-3-sulfonyl)-2-methyl-propionamide], the agonistic activity is reported as “agonistic activity”. Cn1nc(C(C)(C)C)cc1NC(=O)C(C)(C)S(=O)(=O)c1ccc(C(F)(F)F)nc1 [N-(5-tert-Butyl-2-methyl-2H-pyrazol-3-yl)-2-methyl-2-(6-trifluoromethyl-pyridine-3-sulfonyl)-propionamide] was tested, and the agonistic activity was “agonistic activity”. Cc1ccc(S(=O)(=O)C(C)(C)C(=O)Nc2cc(C(C)(C)C)nn2C)cc1 [N-(5-tert-Butyl-2-methyl-2H-pyrazol-3-yl)-2-methyl-2-(toluene-4-sulfonyl)-propionamide] was tested, and the agonistic activity was “agonistic activity”. In the case of CC(C)C(C(=O)Nc1cc(C(C)(C)C)nn1C)S(=O)(=O)c1ccc(C(F)(F)F)cc1 (stereo not drawn) [N-(5-tert-Butyl-2-methyl-2H-pyrazol-3-yl)-3-methyl-2-(4-trifluoromethyl-benzenesulfonyl)-butyramide], the agonistic activity is reported as “agonistic activity”. CC(C)(C)c1cc(NC(=O)C(C)(C)S(=O)(=O)c2ccccc2F)[nH]n1 [N-(5-tert-Butyl-2H-pyrazol-3-yl)-2-(2-fluoro-benzenesulfonyl)-2-methyl-propionamide] was tested, and the agonistic activity was “agonistic activity”. CC(C)(C)c1cc(NC(=O)C(C)(C)S(=O)(=O)c2ccc(Cl)cc2)[nH]n1 [N-(5-tert-Butyl-2H-pyrazol-3-yl)-2-(4-chloro-benzenesulfonyl)-2-methyl-propionamide] was tested, and the agonistic activity was “agonistic activity”.
